The species entered for assay [1] is Rattus norvegicus. Nature of the assay: Percent relative stimulation index to stimulate insulin was determined. It counts as functional.
For assay [2], the species on record is Rattus norvegicus. Nature of the assay: In vitro ability to stimulate insulin was determined at (15 mM glucose). The assay is classed as functional.
Assay [3] deals with T1, ATP-binding cassette sub-family C member 8 (Homo sapiens, UniProt Q09428). Nature of the assay: In vitro displacement of [3H]glibenclamide (IC50=0.61) from COS-1 cells expressing Sulfonylurea receptor 1 (SUR-1). The assay is classed as cell-based.
In assay [4] the target is T1, ATP-binding cassette sub-family C member 8. Nature of the assay: Displacement of [3H]glibenclamide from COS-1 cells expressing Sulfonylurea receptor 1 (SUR-1). The assay is classed as cell-based. For orientation: Loss of bound radioactivity is the signal in a displacement assay; it reports binding, not function.
Assay [5] is filed under the species Rattus norvegicus. Nature of the assay: Percent stimulation index to stimulate insulin was determined. The assay is classed as functional.
The species entered for assay [6] is Rattus norvegicus. Nature of the assay: In vitro ability to stimulate insulin was determined at (5 mM glucose+0.1 uM compound). It counts as functional.

T1 sequence (Q09428 whole entry): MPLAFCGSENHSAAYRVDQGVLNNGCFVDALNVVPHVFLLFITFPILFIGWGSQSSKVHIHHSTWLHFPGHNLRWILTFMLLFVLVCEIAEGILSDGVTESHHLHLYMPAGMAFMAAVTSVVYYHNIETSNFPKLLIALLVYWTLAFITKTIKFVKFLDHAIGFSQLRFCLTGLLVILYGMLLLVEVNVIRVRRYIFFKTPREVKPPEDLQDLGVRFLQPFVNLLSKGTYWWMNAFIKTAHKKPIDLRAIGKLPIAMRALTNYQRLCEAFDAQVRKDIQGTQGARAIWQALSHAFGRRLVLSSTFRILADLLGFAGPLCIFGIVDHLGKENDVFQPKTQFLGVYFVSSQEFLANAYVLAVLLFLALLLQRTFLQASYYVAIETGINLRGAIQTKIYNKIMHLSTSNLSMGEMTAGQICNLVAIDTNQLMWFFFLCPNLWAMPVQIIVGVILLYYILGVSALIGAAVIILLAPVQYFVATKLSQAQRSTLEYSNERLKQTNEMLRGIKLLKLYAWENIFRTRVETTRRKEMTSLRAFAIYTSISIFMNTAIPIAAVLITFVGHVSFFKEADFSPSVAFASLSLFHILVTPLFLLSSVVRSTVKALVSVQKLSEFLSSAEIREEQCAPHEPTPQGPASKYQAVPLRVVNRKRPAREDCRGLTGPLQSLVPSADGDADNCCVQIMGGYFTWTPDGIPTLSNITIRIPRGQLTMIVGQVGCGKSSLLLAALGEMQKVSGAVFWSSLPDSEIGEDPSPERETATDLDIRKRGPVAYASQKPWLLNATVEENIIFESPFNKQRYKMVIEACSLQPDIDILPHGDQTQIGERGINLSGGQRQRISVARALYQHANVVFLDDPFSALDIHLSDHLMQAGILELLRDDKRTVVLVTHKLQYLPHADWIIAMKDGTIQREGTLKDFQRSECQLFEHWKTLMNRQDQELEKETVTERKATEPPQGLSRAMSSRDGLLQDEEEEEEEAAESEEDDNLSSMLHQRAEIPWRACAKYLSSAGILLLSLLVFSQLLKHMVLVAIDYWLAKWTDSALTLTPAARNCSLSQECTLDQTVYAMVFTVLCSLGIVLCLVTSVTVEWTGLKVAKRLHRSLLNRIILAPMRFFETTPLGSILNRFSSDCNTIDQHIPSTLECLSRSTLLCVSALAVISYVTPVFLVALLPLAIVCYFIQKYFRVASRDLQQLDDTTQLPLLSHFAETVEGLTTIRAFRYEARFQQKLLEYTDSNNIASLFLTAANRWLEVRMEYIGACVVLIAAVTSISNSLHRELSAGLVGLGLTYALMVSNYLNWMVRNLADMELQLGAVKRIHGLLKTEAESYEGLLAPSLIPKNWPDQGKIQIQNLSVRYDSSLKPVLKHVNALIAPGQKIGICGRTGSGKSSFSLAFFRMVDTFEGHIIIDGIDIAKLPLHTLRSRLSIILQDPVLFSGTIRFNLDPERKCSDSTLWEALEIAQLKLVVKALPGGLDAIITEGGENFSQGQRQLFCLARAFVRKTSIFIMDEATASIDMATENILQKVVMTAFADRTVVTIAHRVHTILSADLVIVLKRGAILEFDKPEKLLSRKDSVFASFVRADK

In turn, `COc1cc(CC(=O)N[C@@H](CC(C)C)c2ccccc2N2CCCCC2)ccc1C(=O)O` displayed a Relative stimulation index in the assay filed under Rattus norvegicus [1] of 64%. Besides, the Insulin release in the assay listed under Rattus norvegicus [2] is 4 ng/islet/1h; in the assay listed under Rattus norvegicus [6], 2 ng/islet/1h. Moreover, in assay [3], the IC50 is 163 nM. In assay [4], the dissociation constant (Kd) turned out to be 83 nM. The compound also had a Stimulation index in the assay listed under Rattus norvegicus [5] of 2 fold.

Take `CCOc1cc(CC(=O)N[C@@H](CC(C)C)c2ccccc2N2CCCCC2)ccc1C(=O)O` [REPAGLINIDE]: the Relative stimulation index in the assay filed under Rattus norvegicus [1] stood at 63%. Besides, the Insulin release in the assay listed under Rattus norvegicus [2] was 4 ng/islet/1h; in the assay filed under Rattus norvegicus [6], 2.1 ng/islet/1h. For the same compound, the concentration for half-maximal inhibition (IC50) in assay [3] was 106 nM. Also, binding in assay [4] was put at a Kd of 50 nM. In the assay listed under Rattus norvegicus [5], this compound had a Stimulation index of 1.9 fold.

For the compound `CC(C)C[C@H](NC(=O)Cc1ccc(C(=O)O)c(OCCF)c1)c1ccccc1N1CCCCC1`, the IC50 in assay [3] was 281 nM. In addition, in assay [4], the Kd is 134 nM.

Broadly, the IC50 is the midpoint of a concentration-inhibition curve. A lower IC50 goes with greater potency. By Kd is commonly meant the equilibrium constant for the complex coming apart. Read a high Kd as weaker binding.

For the origin of these results see ChEMBL document CHEMBL1137909, “Synthesis and in vitro evaluation of (S)-2-([11C]methoxy)-4-[3-methyl-1-(2-piperidine-1-yl-phenyl)-butyl-carbamoyl]-benzoic acid ([11C]methoxy-repaglinide): a potential beta-cell imaging agent” (Bioorg Med Chem Lett, 2004).
